Source: patent US11504382B2, “Tricyclic inhibitors of Hepatitis B virus” (Antios Therapeutics, Inc., priority 2018, dated 2022)

Test system: HBV
Assay: HBV inhibition assay in HepAD38 cells (extracellular HBV DNA by direct qPCR)
Assay type: cell-based, Hepatitis B virus
Details: 0.1 μM, 96 hours, relative to non-treated reference

Row | Molecule | Anti HBV Activity (conc μM)
1 | Ethyl 8-((4-fluoro-3-methylphenyl)carbamoyl)-7-methyl-3a,4,10,10a-tetrahydro-1H,7H-dipyrrolo[3,4-b:3′,4′-f][1,4,5]oxathiazocine-2(3H)-carboxylate 5,5-dioxide (3aS,10aS) [Example E40] | B (0.1) (HBV inhibition less than 50% at the concentration indicated in the table)
2 | Cn1cc2c(c1C(=O)Nc1ccc(F)c(F)c1)OCC1CCCC1NS2(=O)=O (single isomer, unassigned) [Example E35, N-(3,4-difluorophenyl)-2-methyl-5a,6,7,8,8a,9-hexahydro-2H,5H-cyclopenta[f]pyrrolo[3,4-b][1,4,5]oxathiazocine-1-carboxamide 4,4-dioxide (Chiral 5aS,8aR or 5aR,8aS - Stereochemistry unknown)] | A (0.1) (HBV inhibition greater than 50% at the concentration indicated in the table)

Same assay, conditions: 96 hours, 8-point dose-response curve, read-out: HBV inh EC50

Row | Molecule | EC50 [nM]
3 | Cc1nnc(C(=O)N2CCC3NS(=O)(=O)c4cn(C)c(C(=O)Nc5ccc(F)c(C)c5)c4OCC3C2)o1 (racemic) [Example E130, Trans-N-(4-fluoro-3-methylphenyl)-2-methyl-8-(5-methyl-1,3,4-oxadiazole-2-carbonyl)-5,5a,6,7,8,9,9a,10-octahydro-2H-pyrido[4,3-f]pyrrolo[3,4-b][1,4,5]oxathiazocine-1-carboxamide 4,4-dioxide] | < 1000
4 | Cn1cc2c(c1C(=O)Nc1ccc(F)c(F)c1)OCC1CCCC1NS2(=O)=O (single isomer, unassigned) [Example E35, N-(3,4-difluorophenyl)-2-methyl-5a,6,7,8,8a,9-hexahydro-2H,5H-cyclopenta[f]pyrrolo[3,4-b][1,4,5]oxathiazocine-1-carboxamide 4,4-dioxide (Chiral 5aS,8aR or 5aR,8aS - Stereochemistry unknown)] | < 1000

Same assay, conditions: Hepatitis B virus, 0.05 μM, 96 hours, relative to non-treated reference, read-out: Anti HBV Activity (conc μM)

Row | Molecule | inhibition at 0.05 µM [%]
5 | Cc1cc(C(=O)N2CC3COc4c(cn(C)c4C(=O)Nc4ccc(F)c(C)c4)S(=O)(=O)NC3C2)no1 (stereo not drawn) [Example E52, cis-N-(4-fluoro-3-methylphenyl)-7-methyl-2-(5-methylisoxazole-3-carbonyl)-2,3,3a,4,10,10a-hexahydro-1H,7H-dipyrrolo[3,4-b:3′,4′-f][1,4,5]oxathiazocine-8-carboxamide 5,5-dioxide] | > 50
6 | Cn1cc2c(c1C(=O)Nc1cc(F)c(F)c(F)c1)OCC1CN(CC#N)CC1NS2(=O)=O (stereo not drawn) [Example E74, cis-2-(cyanomethyl)-7-methyl-N-(3,4,5-trifluorophenyl)-2,3,3a,4,10,10a-hexahydro-1H,7H-dipyrrolo[3,4-b:3′,4′-f][1,4,5]oxathiazocine-8-carboxamide 5,5-dioxide] | > 50

Same assay, conditions: Hepatitis B virus, 0.1 μM, 96 hours, relative to non-treated reference, read-out: Anti HBV Activity (conc μM)

Row | Molecule | inhibition at 0.1 µM [%]
7 | CC(C)S(=O)(=O)N1CC2COc3c(cn(C)c3C(=O)Nc3cc(F)c(F)c(F)c3)S(=O)(=O)NC2C1 (racemic) [Example E18, cis-2-(isopropylsulfonyl)-7-methyl-N-(3,4,5-trifluorophenyl)-2,3,3a,4,10,10a-hexahydro-1H,7H-dipyrrolo[3,4-b:3′,4′-f][1,4,5]oxathiazocine-8-carboxamide 5,5-dioxide] | > 50
8 | C[C@@H](O)[C@H](N)C(=O)N1C[C@@H]2COc3c(cn(C)c3C(=O)Nc3cc(F)c(F)c(F)c3)S(=O)(=O)N[C@@H]2C1 (mixture of isomers) [Example E69, cis-2-(L-threonyl)-7-methyl-N-(3,4,5-trifluorophenyl)-2,3,3a,4,10,10a-hexahydro-1H,7H-dipyrrolo[3,4-b:3′,4′-f][1,4,5]oxathiazocine-8-carboxamide 5,5-dioxide] | < 50
9 | Cn1cc2c(c1C(=O)Nc1cc(F)c(F)c(F)c1)OCC1CN(c3cnccn3)CC1NS2(=O)=O (stereo not drawn) [Example E82, cis-7-methyl-2-(pyrazin-2-yl)-N-(3,4,5-trifluorophenyl)-2,3,3a,4,10,10a-hexahydro-1H,7H-dipyrrolo[3,4-b:3′,4′-f][1,4,5]oxathiazocine-8-carboxamide 5,5-dioxide] | > 50
10 | Cc1cc(NC(=O)c2c3c(cn2C)S(=O)(=O)NC2CN(C(=O)c4cccnc4)CC2CO3)ccc1F (stereo not drawn) [Example E54, cis-N-(4-fluoro-3-methylphenyl)-7-methyl-2-nicotinoyl-2,3,3a,4,10,10a-hexahydro-1H,7H-dipyrrolo[3,4-b:3′,4′-f][1,4,5]oxathiazocine-8-carboxamide 5,5-dioxide] | > 50
11 | Cc1cc(NC(=O)c2c3c(cn2C)S(=O)(=O)NC2CN(CC(F)(F)F)CC2CO3)ccc1F (stereo not drawn) [Example E80, cis-N-(4-fluoro-3-methylphenyl)-7-methyl-2-(2,2,2-trifluoroethyl)-2,3,3a,4,10,10a-hexahydro-1H,7H-dipyrrolo[3,4-b:3′,4′-f][1,4,5]oxathiazocine-8-carboxamide 5,5-dioxide] | > 50
12 | Cn1cc(C(=O)N2CC3COc4c(cn(C)c4C(=O)Nc4cc(F)c(F)c(F)c4)S(=O)(=O)NC3C2)cn1 (stereo not drawn) [Example E57, cis-7-methyl-2-(1-methyl-1H-pyrazole-4-carbonyl)-N-(3,4,5-trifluorophenyl)-2,3,3a,4,10,10a-hexahydro-1H,7H-dipyrrolo[3,4-b:3′,4′-f][1,4,5]oxathiazocine-8-carboxamide 5,5-dioxide] | < 50

Same assay, conditions: Hepatitis B virus, 1 μM, 96 hours, relative to non-treated reference, read-out: Anti HBV Activity (conc μM)

Row | Molecule | inhibition at 1 µM [%]
13 | Cn1cc2c(c1C(=O)Nc1ccc(F)c(F)c1)OC[C@H]1C[C@H](C1)NS2(=O)=O [Example E5] | < 50

Same assay, conditions: Hepatitis B virus, 96 hours, 8-point dose-response curve, read-out: HBV inh EC50

Row | Molecule | EC50 [nM]
14 | CC(C)S(=O)(=O)N1CC2COc3c(cn(C)c3C(=O)Nc3cc(F)c(F)c(F)c3)S(=O)(=O)NC2C1 (racemic) [Example E18, cis-2-(isopropylsulfonyl)-7-methyl-N-(3,4,5-trifluorophenyl)-2,3,3a,4,10,10a-hexahydro-1H,7H-dipyrrolo[3,4-b:3′,4′-f][1,4,5]oxathiazocine-8-carboxamide 5,5-dioxide] | < 1000
15 | Cc1cc(NC(=O)c2c3c(cn2C)S(=O)(=O)N[C@H]2CN(C(=O)C4(C)CCCO4)C[C@H]2CO3)ccc1F (stereo partly drawn) [Example E111, (3aR,10aR)—N-(4-fluoro-3-methylphenyl)-7-methyl-2-(2-methyltetrahydrofuran-2-carbonyl)-2,3,3a,4,10,10a-hexahydro-1H,7H-dipyrrolo[3,4-b:3′,4′-f][1,4,5]oxathiazocine-8-carboxamide 5,5-dioxide] | < 1000
16 | Cc1cc(C(=O)N2CC3COc4c(cn(C)c4C(=O)Nc4ccc(F)c(C)c4)S(=O)(=O)NC3C2)no1 (stereo not drawn) [Example E52, cis-N-(4-fluoro-3-methylphenyl)-7-methyl-2-(5-methylisoxazole-3-carbonyl)-2,3,3a,4,10,10a-hexahydro-1H,7H-dipyrrolo[3,4-b:3′,4′-f][1,4,5]oxathiazocine-8-carboxamide 5,5-dioxide] | < 1000
17 | Cn1cc2c(c1C(=O)Nc1cc(F)c(F)c(F)c1)OCC1CN(C(=O)c3nonc3N)CC1NS2(=O)=O (stereo not drawn) [Example E60, cis-2-(4-amino-1,2,5-oxadiazole-3-carbonyl)-7-methyl-N-(3,4,5-trifluorophenyl)-2,3,3a,4,10,10a-hexahydro-1H,7H-dipyrrolo[3,4-b:3′,4′-f][1,4,5]oxathiazocine-8-carboxamide 5,5-dioxide] | < 1000
18 | Cc1noc(N2C[C@H]3COc4c(cn(C)c4C(=O)Nc4ccc(F)c(C)c4)S(=O)(=O)N[C@H]3C2)n1 [Example E115, (3aR,10aR)—N-(4-fluoro-3-methylphenyl)-7-methyl-2-(3-methyl-1,2,4-oxadiazol-5-yl)-2,3,3a,4,10,10a-hexahydro-1H,7H-dipyrrolo[3,4-b:3′,4′-f][1,4,5]oxathiazocine-8-carboxamide 5,5-dioxide] | < 1000
19 | Cc1nnc(C(=O)N2C[C@H]3COc4c(cn(C)c4C(=O)Nc4ccc(F)c(C)c4)S(=O)(=O)N[C@H]3C2)s1 [Example E107, (3aR,10aR)—N-(4-fluoro-3-methylphenyl)-7-methyl-2-(5-methyl-1,3,4-thiadiazole-2-carbonyl)-2,3,3a,4,10,10a-hexahydro-1H,7H-dipyrrolo[3,4-b:3′,4′-f][1,4,5]oxathiazocine-8-carboxamide 5,5-dioxide] | < 1000
20 | Cn1cc2c(c1C(=O)Nc1cc(F)c(F)c(F)c1)OCC1CN(CC#N)CC1NS2(=O)=O (stereo not drawn) [Example E74, cis-2-(cyanomethyl)-7-methyl-N-(3,4,5-trifluorophenyl)-2,3,3a,4,10,10a-hexahydro-1H,7H-dipyrrolo[3,4-b:3′,4′-f][1,4,5]oxathiazocine-8-carboxamide 5,5-dioxide] | < 1000
21 | Cc1cc(NC(=O)c2c3c(cn2C)S(=O)(=O)NC2CCN(C(=O)C4(C)CCCO4)CC2CO3)ccc1F (racemic) [Example E127, Cis-N-(4-fluoro-3-methylphenyl)-2-methyl-8-(2-methyltetrahydrofuran-2-carbonyl)-5,5a,6,7,8,9,9a,10-octahydro-2H-pyrido[4,3-f]pyrrolo[3,4-b][1,4,5]oxathiazocine-1-carboxamide 4,4-dioxide] | < 1000
22 | Cc1nnc(C(=O)N2C[C@@H]3COc4c(cn(C)c4C(=O)Nc4ccc(F)c(C)c4)S(=O)(=O)N[C@H]3C2)o1 (single isomer, unassigned) [Example E154] | < 1000
23 | CCOC(=O)N1CC2CCOc3c(cn(C)c3C(=O)Nc3cc(F)c(F)c(F)c3)S(=O)(=O)NC2C1 (mixture of isomers) [Example E156, Cis/Trans Ethyl 7-methyl-8-((3,4,5-trifluorophenyl)carbamoyl)-1,3a,4,10,11,11a-hexahydro-7H-dipyrrolo[3,4-b:3′,4′-f][1,4,5]oxathiazocine-2(3H)-carboxylate 5,5-dioxide] | < 1000
24 | Cn1cc2c(c1C(=O)Nc1cc(F)c(F)c(F)c1)OCC1CN(c3nccc(=O)[nH]3)CC1NS2(=O)=O (stereo not drawn) [Example E59, cis-7-methyl-2-(6-oxo-1,6-dihydropyrimidin-2-yl)-N-(3,4,5-trifluorophenyl)-2,3,3a,4,10,10a-hexahydro-1H,7H-dipyrrolo[3,4-b:3′,4′-f][1,4,5]oxathiazocine-8-carboxamide 5,5-dioxide] | > 1000
25 | Cc1cc(NC(=O)c2c3c(cn2C)S(=O)(=O)NC2CN(c4cccnc4)CC2CO3)ccc1F (stereo not drawn) [Example E48, cis-N-(4-fluoro-3-methylphenyl)-7-methyl-2-(pyridin-3-yl)-2,3,3a,4,10,10a-hexahydro-1H,7H-dipyrrolo[3,4-b:3′,4′-f][1,4,5]oxathiazocine-8-carboxamide 5,5-dioxide] | < 1000
26 | Cn1cc2c(c1C(=O)Nc1cc(F)c(F)c(F)c1)OCC1CN(C(=O)c3cnco3)CC1NS2(=O)=O (stereo not drawn) [Example E64, cis-7-methyl-2-(oxazole-5-carbonyl)-N-(3,4,5-trifluorophenyl)-2,3,3a,4,10,10a-hexahydro-1H,7H-dipyrrolo[3,4-b:3′,4′-f][1,4,5]oxathiazocine-8-carboxamide 5,5-dioxide] | < 1000
27 | Cn1cc2c(c1C(=O)Nc1cc(F)c(F)c(F)c1)OC1COCC1NS2(=O)=O (racemic) [Example E7, trans-7-methyl-N-(3,4,5-trifluorophenyl)-1,3a,4,9a-tetrahydro-3H,7H-furo[3,4-f]pyrrolo[3,4-b][1,4,5]oxathiazepine-8-carboxamide 5,5-dioxide] | < 1000
28 | Cc1cc(NC(=O)c2c3c(cn2C)S(=O)(=O)NC2C(=O)N(Cc4ccccc4)CC2CO3)ccc1F (stereo not drawn) [Example E155, Cis 2-benzyl-N-(4-fluoro-3-methylphenyl)-7-methyl-3-oxo-2,3,3a,4,10,10a-hexahydro-1H,7H-dipyrrolo[3,4-b:3′,4′-f][1,4,5]oxathiazocine-8-carboxamide 5,5-dioxide] | < 1000
